# Reference: patent US4308256A, “Method of inducing analgesia” (American Home Products Corporation, priority 1980, dated 1981)
# Bridge positions count the residues as written; N and C are the ends. Square brackets hold non-standard residues; d marks the D form. Peptide text beside a SMILES is read from it. * marks the point of attachment. Ileψ(thiazoline)Cys = CC[C@H](C)[C@H](N)C1=N[C@H](C(=O)*)CS1; dOrn = NCCC[C@@H](N)C(=O)O
# Tests used:
# [1] = test system: aminopeptidase; conditions: cited from earlier work
# [2] = test system: male Charles River rats; experiment: D'Amour-Smith rat tail-flick procedure (radiant heat, 8 second cut-off), intraventricular injection; assay type: in vivo; conditions: for Tail-flick latency: leucine-enkephalin intraventricular
# Experimental: Intraventricular cannulae, made of 27-gauge stainless steel tubing, are implanted in 300-400 g. male Charles River rats under pentobarbital anesthesia. After a recovery period of at least one week, the rats are restrained in a wire-mesh cylindrical chamber so that the tip of the tail can be positioned at the focal point of a radiant heat source. After an acclimatistation period of 5 minutes, the lamp is turned on and an electric clock activated. Movement of the tip of the tail exposes a photocell to the lamp, which turns off the thermal stimulus and stops the clock. If a rat fails to move its tail within 8 seconds, the heat is automatically turned off to prevent blistering. The intensity of the lamp is adjusted in each case to produce at least three baseline tail-flick latencies of 2.5-4.5 seconds. Tests are initially made every 2 minutes, then every 5 minutes and finally every 15 minutes.
# Initially, using the above outlined procedure, the effects of intraventricularly administered leucine-enkephalin are tested in rats according to the above procedure.
# The rat tail flick procedure is repeated, first by the simultaneous intraventricular injection of both leucine-enkephalin and bestatin and then by the initial injection of bestatin followed one hour later by the injection of leucine-enkephalin.
# The above procedure is repeated again, however, the bestatin is administered first and then one hour later the leucine-enkephalin is administered.
# The effects of bestatin alone are tested in rats according to the rat tail flick procedure.
# [3] = test system: rats; conditions: fully reversible by naloxone; cited from earlier work
# [4] = exogenously (intraventricularly) administered leucine-enkephalin alone, rats
compound,measurement,setting,value
CC[C@H](C)[C@H](N)C1=N[C@H](C(=O)N[C@@H](CC(C)C)C(=O)N[C@H](CCC(=O)O)C(=O)N[C@H](C(=O)N[C@H]2CCCCNC(=O)[C@H](CC(N)=O)NC(=O)[C@@H](CC(=O)O)NC(=O)[C@H](Cc3cnc[nH]3)NC(=O)[C@@H](Cc3ccccc3)NC(=O)[C@H]([C@@H](C)CC)NC(=O)[C@@H](CCCN)NC2=O)[C@@H](C)CC)CS1 [bacitracin] ({Ileψ(thiazoline)Cys}-L[dE]IK[dOrn]I[dF]H[dD]N; lactam 4-C),"Inhibition of ""aminopeptidase""-catalyzed breakdown of enkephalins",[1],effective inhibitors
"CC(C)C[C@H](NC(=O)[C@H](Cc1ccccc1)NC(=O)CNC(=O)CNC(=O)[C@@H](N)Cc1ccc(O)cc1)C(=O)O [leucine-enkephalin, H-Tyr-Gly-Gly-Phe-Leu-OH, reference compound]",Time after which the effect dissipates rapidly,[2]; [4],10 to 12 min
same,Time to peak analgesic effect,[2]; [4],6 to 8 min
same,Tail-flick latency,"[2]; Rat 1, 2 min",8.00 s
same,Tail-flick latency,"[2]; Rat 1, 4 min",8.00 s
same,Tail-flick latency,"[2]; Rat 1, 6 min",8.00 s
same,Tail-flick latency,"[2]; Rat 1, 8 min",8.00 s
same,Tail-flick latency,"[2]; Rat 1, 10 min",6.15 s
same,Tail-flick latency,"[2]; Rat 1, 12 min",5.76 s
same,Tail-flick latency,"[2]; Rat 1, 14 min",2.69 s
same,Tail-flick latency,"[2]; Rat 2, 2 min",8.00 s
same,Tail-flick latency,"[2]; Rat 2, 4 min",8.00 s
same,Tail-flick latency,"[2]; Rat 2, 6 min",5.11 s
same,Tail-flick latency,"[2]; Rat 2, 8 min",4.24 s
same,Tail-flick latency,"[2]; Rat 2, 10 min",3.48 s
same,Tail-flick latency,"[2]; Rat 2, 12 min",4.15 s
same,Tail-flick latency,"[2]; Rat 3, 2 min",4.88 s
same,Tail-flick latency,"[2]; Rat 3, 4 min",8.00 s
same,Tail-flick latency,"[2]; Rat 3, 6 min",7.50 s
same,Tail-flick latency,"[2]; Rat 3, 8 min",8.00 s
same,Tail-flick latency,"[2]; Rat 3, 10 min",4.50 s
same,Tail-flick latency,"[2]; Rat 3, 12 min",3.49 s
same,Tail-flick latency,"[2]; Rat 3, 14 min",3.04 s
same,Tail-flick latency,"[2]; Rat 4, 2 min",6.47 s
same,Tail-flick latency,"[2]; Rat 4, 4 min",6.97 s
same,Tail-flick latency,"[2]; Rat 4, 6 min",6.62 s
same,Tail-flick latency,"[2]; Rat 4, 8 min",7.17 s
same,Tail-flick latency,"[2]; Rat 4, 10 min",6.81 s
same,Tail-flick latency,"[2]; Rat 4, 12 min",7.52 s
same,Tail-flick latency,"[2]; Rat 4, 14 min",3.06 s
same,Analgesia after injection into the brain ventricle,[3],profound analgesia
COc1ccc(C[C@H](N)C(=O)N[C@H]2[C@@H](O)[C@H](n3cnc4c(N(C)C)ncnc43)O[C@@H]2CO)cc1 [puromycin],"Inhibition of ""aminopeptidase""-catalyzed breakdown of enkephalins",[1],effective inhibitors
H-Tyr-Gly-Gly-Phe-Met-OH [methionine-enkephalin],Analgesia after injection into the brain ventricle,[3],profound analgesia
